Patent US20090253651A1, “DRUG DELIVERY SYSTEM BASED ON REGIOSELECTIVELY AMIDATED HYALURONIC ACID” (EURAND PHARMACEUTICALS LTD., priority 2006, published 2009)

Columns and labels:
Format in all cases: cell-based
[1] = tested on: HT29 (colon rectal carcinoma); experiment: Antiproliferative activity, MTT test, HT29; settings: Homo sapiens, HT-29; HT29 cells, 5 days treatment, MTT on day 6; read-out: IC50, concentration necessary to reduce the cell growth to 50% of the growth of the control
Protocol: (§1) Antiproliferative activity of the DDS was determined on three lines of carcinoma (HT29: colon rectal carcinoma, H460: lung carcinoma, H460M2: lung metastatic carcinoma which are CPT sensitive. Cells were incubated in 96-well plates for 5 days in complete RPMI1640 Medium (Sigma Chemical Co.) supplemented with 10% FBS (Hyclone Europe), 2 mM L-glutamine (Hyclone Europe), and 100 U/ml penicillin G and 100 ug/ml streptomycin (Sigma Chemical Co.) at […], and in controlled atmosphere (5% CO2), with irinotecan and DDSs of examples 38, 39, 41; the DDS were tested at doses equimolar with those of the reference, in the range 3-30 nM and 0.1-30 μM.
(§2) Cytotoxicity was determined on day 6 (after 5 days treatments) by the MTT test, by measuring cell viability as the cell metabolic capacity to transform the tetrazolium salt of MTT in the blue formazan, by mitochondrial dehydrogenases; the blue colour is read at 570 nm with a spectrophotometer. The following DDSs were tested.

H460 (lung carcinoma) = experiment: Antiproliferative activity, MTT test, H460; settings: Homo sapiens, NCI-H460; H460 cells, 5 days treatment, MTT on day 6; read-out: IC50, concentration necessary to reduce the cell growth to 50% of the growth of the control
Protocol: as §1, §2

[2] = tested on: H460-M2 (lung metastatic carcinoma); experiment: Antiproliferative activity, MTT test, H460-M2; settings: H460-M2 cells, 5 days treatment, MTT on day 6; read-out: IC50, concentration necessary to reduce the cell growth to 50% of the growth of the control
Protocol: as §1, §2

CCc1c2c(nc3ccc(OC(=O)N4CCC(N5CCCCC5)CC4)cc13)-c1cc3c(c(=O)n1C2)COC(=O)[C@]3(O)CC [Irinotecan, irinotecan]
IC50 [1]: 250 nM | IC50 (H460 (lung carcinoma)): 440 nM | IC50 [2]: 460 nM
